Experimental data reported in patent US8450283B2, “Composition for treating cancer and use thereof” (National Taiwan University, priority 2008, dated 2013).
“Also recorded” adds a separate entry of the source. Where a SMILES comes first, the peptide text is derived from it. Bridges are numbered along the chain shown (N, C = ends).

Tests used:
[1] = target: T1, NRP1 (Homo sapiens, UniProt O14786); assay: Surface plasmon resonance (Biacore) binding of selected peptides to NRP1; details: 25° C., immobilized recombinant NRP1, read-out: ka
T1 construct: Recombinant soluble NRP1 (sNRP1) protein containing His6 and c-Myc domain tags was synthesized in NIH-3T3 murine fibroblast cells; His6; c-Myc; made in house; host or cells: NIH-3T3 fibroblast cells, secreted into medium, purified on Ni-NTA
T1 sequence (O14786 22-644 isoform O14786-2 limits assumed): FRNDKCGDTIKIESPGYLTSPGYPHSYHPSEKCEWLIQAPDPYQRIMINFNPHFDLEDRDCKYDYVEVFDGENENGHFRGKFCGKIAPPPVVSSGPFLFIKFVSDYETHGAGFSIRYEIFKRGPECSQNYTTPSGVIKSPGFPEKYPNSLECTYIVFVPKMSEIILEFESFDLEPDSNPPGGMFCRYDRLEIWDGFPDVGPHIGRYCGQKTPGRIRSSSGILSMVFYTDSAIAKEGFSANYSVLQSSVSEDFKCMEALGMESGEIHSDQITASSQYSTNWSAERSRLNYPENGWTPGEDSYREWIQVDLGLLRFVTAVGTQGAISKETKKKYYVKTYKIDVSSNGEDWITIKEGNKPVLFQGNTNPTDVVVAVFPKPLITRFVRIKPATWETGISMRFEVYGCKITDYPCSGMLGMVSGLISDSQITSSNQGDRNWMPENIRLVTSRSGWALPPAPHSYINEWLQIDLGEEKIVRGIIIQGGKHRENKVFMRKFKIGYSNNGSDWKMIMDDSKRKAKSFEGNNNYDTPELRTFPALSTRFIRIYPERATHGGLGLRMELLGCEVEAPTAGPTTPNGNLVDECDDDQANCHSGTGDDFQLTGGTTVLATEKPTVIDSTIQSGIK
Experimental: (§1) The binding kinetics of selected peptides with NRP1 were tested using the surface plasmon resonance based measuring system (Biacore AB) at 25° C. Recombinant NRP1 was immobilized on CM5 sensor chips by amine coupling at 400 response units using the amine coupling kit (Biacore) according to the manufacturer's instructions. Binding was detected in resonance units after injecting various concentrations of peptide at a flow rate of 30 μL/min. Sensograms of association and dissociation were recorded and analyzed using BIAevaluation software 3.0 (Biacore AB).

[2] = tested on: CL1-5 cells; assay: Cytotoxicity / cell viability of peptide-treated cancer cells; type: cell-based, human; details: peptide treatment of cancer cells
[3] = tested on: CL1-5 cells; assay: In vitro invasion assay (modified Boyden chamber, Matrigel); type: cell-based, human; details: 48 h, Matrigel-coated Transwell
Experimental: A modified Boyden chamber system was used to investigate the invasive capability of CL cells treated with selected peptides, sNRP1, and siRNA of NRP1 (Chu Y W, et al., Am J Respir Cell Mol Biol 1997, 17: 353-360). The polycarbonate membranes (containing 8-μm pores) of Transwell inserts were coated with Matrigel. The cells were suspended in RPMI 1640 containing 10% NuSerum (Life Science), and 2.5×10^4 cells were placed into the upper well of each chamber. After incubation for 48 h at 37° C., the Transwell membrane was fixed with methanol for 10 min at room temperature and stained with a 50 μg/mL solution of propidium iodide (Sigma) for 30 min at room temperature. The number of cells in each membrane was counted under a microscope at a magnification of ×50 using the Analytical Imaging Station software package (Imaging Research Inc.). Each sample was assayed in triplicate.

[4] = target: T2, human VEGF165 (Homo sapiens, UniProt P15692); assay: Surface plasmon resonance binding of recombinant sNRP1 to VEGF165; details: read-out: average dissociation constant (KD) of human VEGF165 binding to sNRP1
T2 construct: purchased PeproTech, Inc
T2 sequence (P15692 27-191 isoform P15692-4): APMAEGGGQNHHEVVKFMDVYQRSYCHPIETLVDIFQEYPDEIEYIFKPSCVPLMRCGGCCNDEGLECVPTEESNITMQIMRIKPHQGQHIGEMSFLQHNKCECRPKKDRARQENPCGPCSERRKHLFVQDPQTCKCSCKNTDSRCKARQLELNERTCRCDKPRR
Experimental: as §1

[5] = tested on: CL1-5 cells; assay: Filamentous actin staining (rhodamine-phalloidin); type: cell-based, human
Experimental: For filamentous actin (F-actin) staining, cells were seeded on coverslips in 24-well plates and allowed to attach for 24 h in medium containing 10% FCS. The cells were fixed, washed, and permeabilized in 0.1% Triton-X. The cells were incubated for 30 min with 5 units/mL of rhodamine-conjugated phalloidin (Molecular Probe) and mounted using Fluor Save reagent (Calbiochem). The slides were analyzed using a Zeiss Axioplan 2 microscope.

[6] = tested on: VEGFR2; assay: VEGF165-induced VEGFR2 phosphorylation in CL1-5 cells (immunoprecipitation / Western blot); type: cell-based, human
Experimental: VEGFR2 phosphorylation was assessed as previously described (Soker S, et al., J Cell Biochem 2002, 85:357-368). Briefly, CL1-5 cells were treated with a mixture of hVEGF and sNRP1 for 30 min on ice and then at 37° C. for 7 min. Cell lysates were immunoprecipitated with anti-VEGFR2 antibodies. For Western blotting, the membranes were first probed with anti-Flk-1 antibodies and then reprobed with anti-phospho-VEGFR2 antibodies 2/3(pc460) after being stripped with deblotting buffer. In the antiangiogenesis assay, HUVECs were pretreated with peptides for 10 min followed by treatment with VEGF for 5 min, and the cells were then immediately extracted with lysis buffer. Activation of Flk-1/KDR was determined by immunoblotting cell extracts with anti-Flk-1 antibodies and then reprobing with anti-phospho-VEGFR2 antibodies (pTyr^1214) after the membranes had been stripped with deblotting buffer.

[7] = tested on: Akt; assay: VEGF165-induced Akt phosphorylation in CL1-5 cells (Western blot); type: cell-based, human; details: 1.3 nmol/L VEGF165, 10 nmol/L sNRP1
[8] = tested on: NRP1; assay: NRP1 expression after siRNA transfection (Western blot); type: cell-based, human; details: CL1-5 cells transfected with siRNA
[9] = tested on: PI3K; assay: Phosphoinositide-3-kinase activity assay in CL1-5 cells; type: cell-based, human; details: 48 h after transfection, 1.3 nmol/L VEGF165, vs nonsilencing siRNA
Experimental: Phosphoinositide-3-kinase (PI3K) activities were assayed as described previously (Lin M T, et al., J Biol Chem 2001, 276: 48997-49002) with some modifications. In brief, CL1-5 cell extracts were incubated with the antiphosphotyrosine antibody and then precipitated with protein A-Sepharose. The immunocomplexes were preincubated with phosphatidylinositol-4,5-P2 (Sigma), and the kinase reaction was initiated by adding 10 μCi of [γ-^32P]ATP in reaction buffer for 15 min. Phospholipids were separated by TLC and visualized by phosphorimaging.

[10] = tested on: CL1-5 cells; assay: Scratch wound healing migration assay; type: cell-based, human; details: 24 h after scratch, 24 nmol/L siRNA
Experimental: Cell migration was measured by the in vitro scratch wound healing assay (Tamura M, et al., Science 1998, 280: 1614-1617). CL1-5 cells were transfected with 24 nmol/L siRNA-1 in 12-well plates. Twenty-four hours after transfection, cells were scratched with a yellow pipette tip and photographed 18, 21, and 24 h after the scratch. The cell migration at 0, 18, 21, and 24 h was evaluated by counting cells that had migrated from the wound edge.

Compound	kon [1] [M⁻¹ s⁻¹]	cytotoxicity / cell viability [2]	invasion ability of CL1-5 cells (in words) [3]	NRP1 expression [8]	also measured
CC[C@H](C)[C@@H]1NC(=O)[C@H](CCCNC(=N)N)NC(=O)[C@H](CCCNC(=N)N)NC(=O)[C@H](CO)NC(=O)[C@H](CCCNC(=N)N)NC(=O)[C@@H](N)CSSC[C@@H](C(=O)O)NC(=O)[C@H](CC(C)C)NC(=O)[C@H](CCCNC(=N)N)NC1=O [DG2, CRSRRIRLC] (H-CRSRRIRLC-OH; disulfide 1-9; N-terminus and C-terminus assumed)	123 ± 24	not cytotoxic	–	–	–
sNRP1: Recombinant soluble NRP1 protein containing His6 and c-Myc domain tags, synthesized in NIH-3T3 cells	–	–	dose-dependent decrease	–	Kd [4]: 125 nM; F-actin polymerization and filopodia formation [5]: inhibited F-actin polymerization and filopodia formation; VEGF165-induced VEGFR2 activation ([6]; VEGF165 plus sNRP1): decreased by sNRP1 in a dose-dependent manner; VEGF165-induced VEGFR2 activation ([6]; high concentrations of sNRP1): totally blocked; VEGF165-induced phosphorylation of Akt at Ser473 [7]: decreased to less than one third
AACAGCCTTGAATGCACTTAT [siRNA-2]	–	–	decreased the invasion ability of CL1-5 cells in a dose-dependent manner	Significant suppression	–
AACACCTAGTGGAGTGATAAA [siRNA-1]	–	–	decreased the invasion ability of CL1-5 cells in a dose-dependent manner	Significant suppression	VEGF165-induced PI3K activation [9]: decreased; migration of CL1-5 cells [10]: significantly inhibited
CSCC[C@@H]1NC(=O)[C@H](CCCNC(=N)N)NC(=O)[C@@H]2CCCN2C(=O)[C@H](CCCNC(=N)N)NC(=O)[C@H](CCCNC(=N)N)NC(=O)[C@@H](N)CSSC[C@@H](C(=O)O)NC(=O)[C@H]([C@@H](C)O)NC(=O)[C@H](CC(C)C)NC1=O [DG1, CRRPRMLTC] (H-CRRPRMLTC-OH; disulfide 1-9; N-terminus and C-terminus assumed)	1230	without affecting cell viability; also recorded: not cytotoxic	–	–	–
